Measurements: publication PMC12419465, “Photoresponsive molecular tweezers modulate Taspase 1 activity” (RSC Chemical Biology, 2025)
Read-outs that look alike come from different tables or passages of the source.

Key:
[1] = Photoisomerization: photostationary states by 1H NMR, switching cycles by UV-vis; type: physicochemical
Method: Tweezer constructs were synthesized as an E/Z mixture, with a strong preference for the thermodynamically stable E isomer. For photoisomerization, UV-vis spectra of TWAAP and TWAB (50 μM in water) were recorded in their initial state. The constructs were then isomerized to the Z isomer with UV light (λ = 365 nm, 1 min) and back to the E isomer with green light (λ = 520 nm, 5 min). Two light sources were used: UV LED HighPower-LED with 3 W of λ = 365 nm (LED Engin Inc., San Jose, California, US) and a LSC-G HighPower-LED with 3 W of λ = 520 nm (Cree Inc., Durham, North Carolina, US). UV-vis spectroscopy was routinely employed to analyze the tweezer constructs, serving as the method of choice to monitor configurational integrity after multiple switching cycles. More than 10 switching cycles were performed without any loss of configurational integrity. The UV-vis spectra were recorded with a JASCO V-650 double-beam spectrophotometer (JASCO).
The photophysical properties of AAP tweezers TWAAP0-4 as well as those of AZO tweezers TWAB1-2 were consistent with previous reports on these photoswitches. […] The two isomers are easily distinguished by the significant difference in their absorption bands (Fig. 2 and Fig. S4a, b). […] Irradiation with green light further increases the concentration of the E isomer, as confirmed by both UV/vis and NMR spectra. The switching process can be repeated for over 10 cycles without loss of configurational integrity or photodegradation of the tweezer. […] (Fig. 2 and Table S1).
Supplementary Table S1. Photostationary states (PSSE→Z and PSSZ→E) and half-life of Z isomers of
respectively. n.d., not determinable.
TW construct PSSE→Z [%] PSSZ→E [%] […]

wildtype Taspase 1 = molecular target: T1, wildtype Taspase 1 (Homo sapiens, UniProt Q9H6P5); assay: Recombinant cleavage assay with GST-MLL2700–2850-GFP-His substrate; type: biochemical; settings: for IC50: ligand conc. 10 - 100 µM, 200 nM Taspase 1, 5 µM substrate, n = 3, read-out: IC50 TW (recombinant cleavage, full-length protein)
T1 sequence (Q9H6P5 1-233 limits assumed): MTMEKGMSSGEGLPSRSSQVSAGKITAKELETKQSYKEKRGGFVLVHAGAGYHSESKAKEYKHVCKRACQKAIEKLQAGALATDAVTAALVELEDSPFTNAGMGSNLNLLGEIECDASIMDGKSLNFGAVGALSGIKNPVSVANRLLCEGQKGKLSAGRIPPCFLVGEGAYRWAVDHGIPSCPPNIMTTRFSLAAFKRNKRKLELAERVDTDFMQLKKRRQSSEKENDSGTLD
T1 sequence (Q9H6P5 234-420 limits assumed): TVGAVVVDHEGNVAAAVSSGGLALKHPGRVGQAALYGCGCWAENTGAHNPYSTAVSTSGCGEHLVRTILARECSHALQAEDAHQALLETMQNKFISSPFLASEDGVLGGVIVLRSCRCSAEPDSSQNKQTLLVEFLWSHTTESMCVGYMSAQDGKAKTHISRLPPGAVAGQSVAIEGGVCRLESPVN
Method: The recombinant cleavage assay employing the recombinant fusion protein GST-MLL2700–2850-GFP-His, which contains the CS2 cleavage site of the Mixed-lineage leukemia (MLL) protein as a substrate for Taspase 1, was performed as described.[9,10]
Given that Taspase 1's active site is positioned directly at the base of the loop harboring the bipartite NLS (Fig. 1A, and Fig. S1), it is reasonable to expect that our photoswitchable tweezer constructs, which recognize this signal, might also influence proteolytic activity - similar to the inhibition observed with our “first-generation” multivalent ligands.[10] In principle the presence of a sterically demanding artificial ligand may hinder or even completely block substrate binding and subsequent cleavage. To assess this, we employed a well-established in vitro cleavage assay using a recombinant, truncated fusion protein harboring the second cleavage site (CS2) of the Mixed Lineage Leukemia 1 (MLL1) protein, a bona fide Taspase 1 substrate.[39] In this assay, the cleaved and uncleaved substrate fractions of the GST-MLL2700–2850-GFP-His substrate were separated on a Coomassie-stained gel, and signal intensities of the different cleavage bands were quantified (Fig. 7, Fig. S8, and Fig. S9). The addition of recombinant, proteolytically active Taspase 1 (200 nM) led to efficient substrate cleavage, which was inhibited by all photoswitchable tweezer constructs in a concentration-dependent manner. IC50 values for the full series of switchable tweezer constructs ranged from 20 to 50 μM, with measurements taken separately for both E and Z isomers Fig. (S9).
Fig. 7 Switchable tweezer constructs interfere with Taspase 1 proteolytic activity. Cleavage assay utilizing the cleavage site CS2 from the natural substrate MLL (GST-MLL2700–2850-GFP-His) and active wildtype Taspase 1. Inhibition of proteolysis was evaluated by the relative amount of uncleaved substrate. Briefly, 5 μM recombinant substrate were incubated with 200 nM wildtype Taspase 1-His and increasing concentrations of TWAAP0-4 (10 - 100 μM), pre-irradiated with either UV light (365 nm, violet), or green light (520 nm, green), or solvent only. Proteolytic activity in solvent-treated samples was set to 100%, and data from TWAAP-treated samples were normalized accordingly. IC50 values were determined by densitometric quantification of the cleavage bands from the gels shown in Fig. S9, followed by nonlinear curve fitting. These values were also used to generate the summary bar plots shown on the right. Data are shown as the mean ± SD from three independent experiments. Composed with https://BioRender.com.
Figure S8. Photoswitchable TWAAP constructs interfere with Taspase 1’s proteolytic activity.
Cleavage assay utilizing the cleavage site CS2 from the natural substrate MLL (GST -MLL2700-2850-GFP-His, 70 kDa) and active wildtype Taspase 1. Inhibition of proteolysis was evaluated by the relative amount of uncleaved in relation to cleaved substrate (50 kDa and 20 kDa, respectively). Briefly, 5 µM recombinant substrate were incubated with 200 nM wildtype Taspase 1-His and increasing concentrations (10 - 100 µM) of indicated TWAAP irradiated with UV (365 nm, left gel panels) or green light (520 nm, right gel panels). Solvent-treated samples (referred to as untreated, un.) served as reference, and as additional controls, Taspase 1 (-T) was omitted or only Taspase 1 (TASP1) was applied. Representative images of three independent experiments are shown. Composed with […]
Figure S9. Photoswitchable TWAAB constructs interfere with Taspase 1’s proteolytic activity. Cleavage assay utilizing the cleavage site CS2 from the natural substrate MLL (GST -MLL2700-2850-GFP-His, 70 kDa) and active wildtype Taspase 1. Inhibition of proteolysis was evaluated by the relative amount of uncleaved in relation to cleaved substrate (50 kDa and 20 kDa, respectively).
Briefly, 5 µM recombinant substrate were incubated with 200 nM wildtype Taspase 1-His and […]

With O=P(O)(O)Oc1c2c(c(OP(=O)(O)OCCn3cc(COCc4ccc(N=Nc5ccc(COCc6cn(CCOP(=O)(O)Oc7c8c(c(OP(=O)(O)O)c9c7C7CC9c9cc%10c(cc97)C7CC%10c9ccccc97)C7CC8c8cc9c(cc87)C7CC9c8ccccc87)nn6)cc5)cc4)nn3)c3c1C1CC3c3cc4c(cc31)C1CC4c3ccccc31)C1CC2c2cc3c(cc21)C1CC3c2ccccc21 [TWAB2] the “PSS E→Z, photostationary state” value ([1]; UV 365 nm) was 59%, the “PSS Z→E, photostationary state” value ([1]; green light 520 nm) was 56% and the IC50 (wildtype Taspase 1; E isomer) was 22.3 µM. For the same molecule, the IC50 (wildtype Taspase 1; Z isomer) was 24.9 µM and the “Difference in inhibitory activity between E and Z isomers (times greater potency of E isomer)” value (wildtype Taspase 1; particularly at 50 μM) was “no difference”.
